Where two headings read alike, the source gives them in different places.
Experiments:
[1] = tested on: subjects with pulmonary hypertension; assay: Oxygen saturation by pulse oximeter and methemoglobin by continuous percutaneous co-oximetry; format: in vivo, human
Experimental: Oxygen saturation measured by pulse oximeter and methemoglobin levels monitored by continuous percutaneous co-oximetry prior to dose administration and through 4 hours post-dose were monitored closely.

[2] = after inhalation
Excerpt: Measurement was made on mixed venous blood using PCW pullback samples at baseline (pre-dose) and at the maximally tolerated dose.

[3] = tested on: hypoxic and normoxic subjects; settings: Ingram et al. (Am J. Phsiol. 298:H331-H339 (2010)); cited from earlier work
[4] = Patient 1, nitrite 45 mg inhaled, 15 min
[5] = Patient 1, nitrite 45 mg inhaled, 30 min
[6] = Patient 1, nitrite 45 mg inhaled, 45 min
[7] = Patient 1, nitrite 45 mg inhaled, 60 min
[8] = Patient 1, nitrite 90 mg inhaled, 15 min
[9] = Patient 1, nitrite 90 mg inhaled, 30 min
[10] = Patient 1, nitrite 90 mg inhaled, 45 min
[11] = Patient 1, nitrite 90 mg inhaled, 60 min
[12] = Patient 2, nitrite 45 mg inhaled, 15 min
[13] = Patient 2, nitrite 45 mg inhaled, 30 min
[14] = Patient 2, nitrite 45 mg inhaled, 45 min
[15] = Patient 2, nitrite 45 mg inhaled, 60 min
[16] = Patient 2, nitrite 90 mg inhaled, 15 min
[17] = Patient 2, nitrite 90 mg inhaled, 30 min
[18] = Patient 2, nitrite 90 mg inhaled, 45 min
[19] = Patient 2, nitrite 90 mg inhaled, 60 min
[20] = Patient 3, nitrite 45 mg inhaled, 15 min
[21] = Patient 3, nitrite 45 mg inhaled, 30 min
[22] = Patient 3, nitrite 45 mg inhaled, 45 min
[23] = Patient 3, nitrite 45 mg inhaled, 60 min
[24] = Patient 3, nitrite 90 mg inhaled, 15 min
[25] = Patient 3, nitrite 90 mg inhaled, 30 min
[26] = Patient 3, nitrite 90 mg inhaled, 45 min
[27] = Patient 3, nitrite 90 mg inhaled, 60 min
[28] = Patient 4, nitrite 45 mg inhaled, 15 min
[29] = Patient 4, nitrite 45 mg inhaled, 30 min
[30] = Patient 4, nitrite 45 mg inhaled, 45 min
[31] = Patient 4, nitrite 45 mg inhaled, 60 min
[32] = Patient 4, nitrite 90 mg inhaled, 15 min
[33] = Patient 4, nitrite 90 mg inhaled, 30 min
[34] = Patient 4, nitrite 90 mg inhaled, 45 min
[35] = Patient 4, nitrite 90 mg inhaled, 60 min
[36] = Patient 5, nitrite 45 mg inhaled, 15 min
[37] = Patient 5, nitrite 45 mg inhaled, 30 min
[38] = Patient 5, nitrite 45 mg inhaled, 45 min
[39] = Patient 5, nitrite 45 mg inhaled, 60 min
[40] = Patient 5, nitrite 90 mg inhaled, 15 min
[41] = Patient 5, nitrite 90 mg inhaled, 30 min
[42] = Patient 5, nitrite 90 mg inhaled, 45 min
[43] = Patient 5, nitrite 90 mg inhaled, 60 min

## O=NO [nitrite, sodium nitrite]
[1]; [4]
  Syst O2sat: 95
  metHgB: 1.1
[1]; [5]
  Syst O2sat: 100
  metHgB: 1.1
[1]; [6]
  Syst O2sat: 92
  metHgB: 1.3
[1]; [7]
  Syst O2sat: 92
  metHgB: 1.5
[1]; [8]
  Syst O2sat: 95
  metHgB: 1.4
[1]; [9]
  Syst O2sat: 94
  metHgB: 1.3
[1]; [10]
  Syst O2sat: 94
  metHgB: 1.2
[1]; [11]
  Syst O2sat: 94
  metHgB: 1.4
[1]; [12]
  Syst O2sat: 98
  metHgB: 1
[1]; [13]
  Syst O2sat: 99
  metHgB: 1
[1]; [14]
  Syst O2sat: 99
  metHgB: 1
[1]; [15]
  Syst O2sat: 99
  metHgB: 1
[1]; [16]
  Syst O2sat: 96
  metHgB: 1.4
[1]; [17]
  Syst O2sat: 98
  metHgB: 1.7
[1]; [18]
  Syst O2sat: 98
  metHgB: 1.7
[1]; [19]
  Syst O2sat: 100
  metHgB: 1.6
[1]; [20]
  Syst O2sat: 92
  metHgB: 1.1
[1]; [21]
  Syst O2sat: 94
  metHgB: 1.3
[1]; [22]
  Syst O2sat: 93
  metHgB: 1.5
[1]; [23]
  Syst O2sat: 94
  metHgB: 1.5
[1]; [24]
  Syst O2sat: 97
  metHgB: 1.7
[1]; [25]
  Syst O2sat: 95
  metHgB: 1.7
[1]; [26]
  Syst O2sat: 95
  metHgB: 1.6
[1]; [27]
  Syst O2sat: 95
  metHgB: 1.5
[1]; [28]
  Syst O2sat: 98
  metHgB: 1.3
[1]; [29]
  Syst O2sat: 98
  metHgB: 1.1
[1]; [30]
  Syst O2sat: 99
  metHgB: 1
[1]; [31]
  Syst O2sat: 97
  metHgB: 0.8
[1]; [32]
  Syst O2sat: 97
  metHgB: 1.7
[1]; [33]
  Syst O2sat: 97
  metHgB: 2
[1]; [34]
  Syst O2sat: 96
  metHgB: 1.2
[1]; [35]
  Syst O2sat: 96
  metHgB: 1.2
[1]; [36]
  Syst O2sat: 94
  metHgB: 1.1
[1]; [37]
  Syst O2sat: 98
  metHgB: 0.8
[1]; [38]
  Syst O2sat: 97
  metHgB: 0.7
[1]; [39]
  Syst O2sat: 94
  metHgB: 0.8
[1]; [40]
  Syst O2sat: 95
  metHgB: 0.9
[1]; [41]
  Syst O2sat: 97
  metHgB: 0.7
[1]; [42]
  Syst O2sat: 98
  metHgB: 0.7
[1]; [43]
  Syst O2sat: 97
  metHgB: 0.5
[1]; Patient 6, nitrite 45, 15 min
  Syst O2sat: 95
  metHgB: 1.1
[1]; Patient 6, nitrite 45, 30 min
  Syst O2sat: 99
  metHgB: 1.3
[1]; Patient 6, nitrite 45, 45 min
  Syst O2sat: 96
  metHgB: 1.3
[1]; Patient 6, nitrite 45, 60 min
  Syst O2sat: 96
  metHgB: 1.2
[1]; Patient 6, nitrite 90, 15 min
  Syst O2sat: 95
  metHgB: 1.9
[1]; Patient 6, nitrite 90, 30 min
  Syst O2sat: 95
  metHgB: 1.9
[1]; Patient 6, nitrite 90, 45 min
  Syst O2sat: 96
  metHgB: 1.7
[1]; Patient 6, nitrite 90, 60 min
  Syst O2sat: 95
  metHgB: 1.7
[1]; at the doses tested (45 mg and 90 mg inhaled)
  methemoglobin: does not significantly affect
[2]; 45 mg dose
  plasma nitrite concentration: 5 to 7 µM
[2]; 90 mg dose
  plasma nitrite concentration: 8 to 10 µM
[3]
  arterial and pulmonary vasodilation: causes arterial and pulmonary vasodilation in hypoxic but not normoxic subjects
